These results are taken from ChEMBL document CHEMBL1124923, “A novel, nonsteroidal inhibitor of androgen binding to the rat androgen binding protein: diethyl [[[3-(2,6-dimethyl-4-pyridinyl)-4-fluorophenyl]amino]methylene] propanedioate” (J Med Chem, 1990).

In one assay the target is T1, Sex hormone-binding globulin (Rattus norvegicus, UniProt P08689).
T1 sequence (P08689 whole entry): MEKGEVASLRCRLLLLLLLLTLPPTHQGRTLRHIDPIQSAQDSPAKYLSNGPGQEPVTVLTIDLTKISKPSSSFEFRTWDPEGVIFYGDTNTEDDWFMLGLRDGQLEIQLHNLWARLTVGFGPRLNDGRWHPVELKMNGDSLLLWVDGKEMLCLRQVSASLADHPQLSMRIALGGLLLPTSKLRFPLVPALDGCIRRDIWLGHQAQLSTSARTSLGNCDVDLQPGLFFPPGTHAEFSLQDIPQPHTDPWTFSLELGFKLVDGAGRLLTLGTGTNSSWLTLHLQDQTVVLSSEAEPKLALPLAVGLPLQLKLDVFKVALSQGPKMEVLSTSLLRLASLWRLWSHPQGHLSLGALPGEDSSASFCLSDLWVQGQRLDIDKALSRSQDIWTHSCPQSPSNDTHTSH
The assay is described as follows: Inhibition of rat androgen binding protein (rABP) (n=9).
The IC50 is the concentration needed to halve the response being measured. Read a low IC50 as higher potency. As to `C[C@]1(O)CC[C@H]2[C@@H]3CCC4=CC(=O)CCC4=C3C=C[C@@]21C` [METRIBOLONE], the half-inhibitory concentration (IC50) amounted to 3.7 nM.

The next assay has as its target T2, Sex hormone-binding globulin (Homo sapiens) (UniProt P04278).
T2 sequence (whole entry): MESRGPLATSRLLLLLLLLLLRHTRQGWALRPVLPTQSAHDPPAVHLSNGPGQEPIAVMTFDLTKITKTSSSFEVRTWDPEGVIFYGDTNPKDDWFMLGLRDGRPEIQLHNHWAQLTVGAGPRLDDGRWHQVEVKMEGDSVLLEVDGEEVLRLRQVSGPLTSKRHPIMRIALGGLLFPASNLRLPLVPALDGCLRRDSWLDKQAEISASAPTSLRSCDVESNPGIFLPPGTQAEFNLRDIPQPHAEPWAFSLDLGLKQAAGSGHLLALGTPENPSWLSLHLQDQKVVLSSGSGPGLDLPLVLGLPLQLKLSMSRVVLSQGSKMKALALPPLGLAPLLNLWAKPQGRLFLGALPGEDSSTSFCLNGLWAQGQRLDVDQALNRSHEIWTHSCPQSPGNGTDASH
Kind of assay: In vitro relative binding affinity against hSHBG (human sex hormone binding globulin).
With `Cc1cc(-c2ccccc2F)cc(C)n1`, the relative binding affinity (RBA) is < 0.01. `Cc1cc(-c2cc([N+](=O)[O-])ccc2F)cc(C)n1`: the relative binding affinity (RBA) was < 0.01. On the same count and under the same terms, to `CCOC(=O)C(/C=N/c1cccc(-c2cc(C)nc(C)c2)c1)=C(\O)OCC` belongs < 0.01.

On to `Cc1cc2c(c(C)n1)c(=O)oc1ccccc12`, for which the relative binding affinity (RBA) was < 0.01.

The compound `C[C@]1(O)CC[C@H]2[C@@H]3CCC4=CC(=O)CCC4=C3C=C[C@@]21C` [METRIBOLONE] registered a relative binding affinity (RBA) of 0.2. Take `Cc1cc(-c2cc(N)ccc2F)cc(C)n1`: the relative binding affinity (RBA) was < 0.01.

Consider `CCOC(=O)C(/C=N/c1ccc(F)c(-c2cc(C)nc(C)c2)c1)=C(/O)OCC`, for which the relative binding affinity (RBA) was < 0.01.
